“And” between values parts separate entries of the source, which are not always exact repeats. Equal values may be shown once.
Conditions: Liquid, Vibrating tube method

CCCCC(=O)OCC(COC(=O)CCCC)(COC(=O)CCCC)COC(=O)CCCC [pentaerythritol tetrapentanoate]
Conditions | mass density
343.15 K, 33864 kPa | 1002.5 kg/m3
343.15 K, 33916 kPa | 1002.5 kg/m3
343.15 K, 33961 kPa | 1002.5 kg/m3
343.15 K, 34007 kPa | 1002.5 kg/m3
343.15 K, 34062 kPa | 1002.6 kg/m3
343.15 K, 34111 kPa | 1002.5 kg/m3
343.15 K, 34161 kPa | 1002.6 kg/m3
343.15 K, 34218 kPa | 1002.7 kg/m3
343.15 K, 34251 kPa | 1002.6 kg/m3
343.15 K, 34275 kPa | 1002.8 kg/m3
343.15 K, 34304 kPa | 1002.7 kg/m3
343.15 K, 34328 kPa | 1002.8 kg/m3
343.15 K, 34353 kPa | 1002.7 kg/m3
343.15 K, 34384 kPa | 1002.7 kg/m3
343.15 K, 34410 kPa | 1002.8 kg/m3
343.15 K, 34438 kPa | 1002.7 kg/m3
343.15 K, 34472 kPa | 1002.8 kg/m3
343.15 K, 34497 kPa | 1002.9 kg/m3
343.15 K, 34503 kPa | 1002.9 kg/m3
343.15 K, 34504 kPa | 1002.8 kg/m3
343.15 K, 34505 kPa | 1002.9 kg/m3
343.15 K, 34506 kPa | 1002.8 kg/m3
343.15 K, 34508 kPa | 1002.8 kg/m3
343.15 K, 34509 kPa | 1002.8 kg/m3
343.15 K, 34510 kPa | 1002.9 kg/m3 and 1002.8 kg/m3
343.15 K, 34512 kPa | 1002.8 kg/m3
343.15 K, 34514 kPa | 1002.8 kg/m3
343.16 K, 412.1 kPa | 978.6 kg/m3
343.16 K, 441.3 kPa | 978.8 kg/m3
343.16 K, 470.3 kPa | 978.8 kg/m3
343.16 K, 495.2 kPa | 978.9 kg/m3
343.16 K, 522.1 kPa | 978.8 kg/m3
343.16 K, 556.2 kPa | 979 kg/m3
343.16 K, 586.3 kPa | 978.8 kg/m3
343.16 K, 617.4 kPa | 979 kg/m3
343.16 K, 654 kPa | 979 kg/m3
343.16 K, 685.5 kPa | 979 kg/m3
343.16 K, 717.1 kPa | 979 kg/m3
343.16 K, 781.4 kPa | 979 kg/m3
343.16 K, 807.8 kPa | 979.1 kg/m3
343.16 K, 835.6 kPa | 979.2 kg/m3
343.16 K, 864.6 kPa | 979.2 kg/m3
343.16 K, 901.1 kPa | 979.2 kg/m3
343.16 K, 933.9 kPa | 979.2 kg/m3
343.16 K, 969.2 kPa | 979.2 kg/m3
343.16 K, 1013.1 kPa | 979.1 kg/m3
343.16 K, 1049.6 kPa | 979.2 kg/m3
343.16 K, 1077.9 kPa | 979.4 kg/m3
343.16 K, 1107.4 kPa | 979.3 kg/m3
343.16 K, 1133.1 kPa | 979.3 kg/m3
343.16 K, 1159.9 kPa | 979.4 kg/m3
343.16 K, 1187.6 kPa | 979.4 kg/m3
343.16 K, 1223.2 kPa | 979.4 kg/m3
343.16 K, 1254.5 kPa | 979.4 kg/m3
343.16 K, 1286.1 kPa | 979.4 kg/m3
343.16 K, 1325.9 kPa | 979.4 kg/m3
343.16 K, 1361.3 kPa | 979.5 kg/m3
343.16 K, 1398.1 kPa | 979.6 kg/m3
343.16 K, 1437 kPa | 979.8 kg/m3
343.16 K, 1485.1 kPa | 979.6 kg/m3
343.16 K, 1528.1 kPa | 979.7 kg/m3
343.16 K, 1574.3 kPa | 979.7 kg/m3
343.16 K, 1633.5 kPa | 979.6 kg/m3
343.16 K, 2223.1 kPa | 980.2 kg/m3
343.16 K, 2283.6 kPa | 980.2 kg/m3
343.16 K, 2321.1 kPa | 980.2 kg/m3
343.16 K, 2385.5 kPa | 980.4 kg/m3
343.16 K, 2425 kPa | 980.4 kg/m3
343.16 K, 2459.5 kPa | 980.4 kg/m3
343.16 K, 2536.9 kPa | 980.4 kg/m3
343.16 K, 2611.6 kPa | 980.6 kg/m3
343.16 K, 2873.3 kPa | 980.7 kg/m3
343.16 K, 2917.7 kPa | 980.7 kg/m3
343.16 K, 3019.5 kPa | 980.9 kg/m3
343.16 K, 3175.8 kPa | 980.9 kg/m3
343.16 K, 3224.4 kPa | 981.1 kg/m3
343.16 K, 3294.8 kPa | 981.1 kg/m3
343.16 K, 3352.1 kPa | 981.2 kg/m3
343.16 K, 3426.6 kPa | 981.2 kg/m3
343.16 K, 3497.5 kPa | 981.3 kg/m3
343.16 K, 3535.3 kPa | 981.2 kg/m3
343.16 K, 3629.9 kPa | 981.3 kg/m3
343.16 K, 3647.8 kPa | 981.5 kg/m3
343.16 K, 3662.8 kPa | 981.3 kg/m3
343.16 K, 3677.4 kPa | 981.3 kg/m3
343.16 K, 3695.4 kPa | 981.4 kg/m3
343.16 K, 3713.8 kPa | 981.4 kg/m3
343.16 K, 3733.2 kPa | 981.4 kg/m3
343.16 K, 3754.8 kPa | 981.5 kg/m3
343.16 K, 3785.2 kPa | 981.5 kg/m3
343.16 K, 3811.5 kPa | 981.5 kg/m3
343.16 K, 3838.2 kPa | 981.6 kg/m3
343.16 K, 3865.5 kPa | 981.5 kg/m3
343.16 K, 5098.9 kPa | 982.6 kg/m3
343.16 K, 5142.8 kPa | 982.5 kg/m3
343.16 K, 5167.8 kPa | 982.6 kg/m3
343.16 K, 5186.3 kPa | 982.5 kg/m3
343.16 K, 5201 kPa | 982.6 kg/m3
343.16 K, 5210.3 kPa | 982.5 kg/m3
343.16 K, 5224.5 kPa | 982.5 kg/m3
343.16 K, 5255.1 kPa | 982.6 kg/m3
343.16 K, 5300.5 kPa | 982.6 kg/m3
343.16 K, 5325.2 kPa | 982.7 kg/m3
343.16 K, 5345.4 kPa | 982.7 kg/m3
343.16 K, 5483.5 kPa | 982.9 kg/m3
343.16 K, 5624.6 kPa | 983 kg/m3
343.16 K, 5676.1 kPa | 983 kg/m3
343.16 K, 5700.4 kPa | 982.9 kg/m3
343.16 K, 5724.9 kPa | 982.9 kg/m3
343.16 K, 5754 kPa | 983 kg/m3
343.16 K, 5779.4 kPa | 983.1 kg/m3
343.16 K, 5804.5 kPa | 983.1 kg/m3
343.16 K, 5829.4 kPa | 982.9 kg/m3
343.16 K, 5859.3 kPa | 983 kg/m3
343.16 K, 5884.9 kPa | 983.1 kg/m3
343.16 K, 5910.4 kPa | 983.1 kg/m3
343.16 K, 5937.2 kPa | 983 kg/m3
343.16 K, 5968 kPa | 983.3 kg/m3
343.16 K, 5994 kPa | 983.1 kg/m3
343.16 K, 6020.7 kPa | 983.2 kg/m3
343.16 K, 6053.2 kPa | 983.2 kg/m3
343.16 K, 6080.4 kPa | 983.2 kg/m3
343.16 K, 6108.6 kPa | 983.3 kg/m3
343.16 K, 6137.6 kPa | 983.3 kg/m3
343.16 K, 6165.8 kPa | 983.2 kg/m3
343.16 K, 6199.5 kPa | 983.3 kg/m3
343.16 K, 6228 kPa | 983.4 kg/m3
343.16 K, 6262.9 kPa | 983.4 kg/m3
343.16 K, 6292.8 kPa | 983.4 kg/m3
343.16 K, 6323.1 kPa | 983.4 kg/m3
343.16 K, 6352.3 kPa | 983.4 kg/m3
343.16 K, 6382.9 kPa | 983.5 kg/m3
343.16 K, 6408.4 kPa | 983.5 kg/m3
343.16 K, 6433.7 kPa | 983.5 kg/m3
343.16 K, 6459.6 kPa | 983.5 kg/m3
343.16 K, 6491.2 kPa | 983.7 kg/m3
343.16 K, 6518.6 kPa | 983.6 kg/m3
343.16 K, 6545.1 kPa | 983.6 kg/m3
343.16 K, 6572.4 kPa | 983.7 kg/m3
343.16 K, 6599.5 kPa | 983.7 kg/m3
343.16 K, 6632.2 kPa | 983.7 kg/m3
343.16 K, 6659.3 kPa | 983.6 kg/m3
343.16 K, 6686.8 kPa | 983.6 kg/m3
343.16 K, 6719.6 kPa | 983.7 kg/m3
343.16 K, 6747.4 kPa | 983.8 kg/m3
343.16 K, 6804.2 kPa | 983.8 kg/m3
343.16 K, 6838.6 kPa | 983.8 kg/m3
343.16 K, 6899.2 kPa | 983.8 kg/m3
343.16 K, 6929.1 kPa | 983.9 kg/m3
343.16 K, 6959.5 kPa | 983.9 kg/m3
343.16 K, 6989.5 kPa | 984 kg/m3
343.16 K, 7026.2 kPa | 983.9 kg/m3
343.16 K, 7056.7 kPa | 984 kg/m3
343.16 K, 7088 kPa | 984.1 kg/m3
343.16 K, 7120.1 kPa | 984.1 kg/m3
343.16 K, 7261.4 kPa | 984.1 kg/m3
343.16 K, 7294.7 kPa | 984.3 kg/m3
343.16 K, 7328.4 kPa | 984.1 kg/m3
343.16 K, 7396.9 kPa | 984.2 kg/m3
343.16 K, 7437.8 kPa | 984.2 kg/m3
343.16 K, 7472.9 kPa | 984.3 kg/m3
